According to PubChem BioAssay AID1963851 (Molecular Pharmacology Branch, DTP, NCI, 2024):

Test system: 188146-221-R-J1-PDC complex spheroid viability
Test: Anticancer human tumor 188146-221-R-J1-PDC patient-derived colon adenocarcinoma cell line growth inhibition [POLQ]
Details: for IC50: curve of first compound; for viability, T/C: stronger effect = lower value
Outline: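 Patient-derived tumour cells were co-cultured with HUVEC and mesenchymal stem cells as multicellular spheroids at 37 °C. They were treated with POLQ inhibitors (novobiocin, ART-558, RP6685) alone or combined with other agents. Top concentrations were at or near clinical Cmax (otherwise 10 microM; SN-38 at 1 microM), decreasing in half-log steps.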

[1] = second compound 0.0316 µM, first compound 0.0316 µM
[2] = second compound 0.0316 µM, first compound 0.1 µM
[3] = second compound 0.0316 µM, first compound 0.316 µM
[4] = second compound 0.0316 µM, first compound 1 µM
[5] = second compound 0.0316 µM, first compound 3.16 µM
[6] = second compound 0.0316 µM, first compound 10 µM
[7] = second compound 0.1 µM, first compound 0.0316 µM
[8] = second compound 0.1 µM, first compound 0.1 µM
[9] = second compound 0.1 µM, first compound 0.316 µM
[10] = second compound 0.1 µM, first compound 1 µM
[11] = second compound 0.1 µM, first compound 3.16 µM
[12] = second compound 0.1 µM, first compound 10 µM
[13] = second compound 0.316 µM, first compound 0.0316 µM
[14] = second compound 0.316 µM, first compound 0.1 µM
[15] = second compound 0.316 µM, first compound 0.316 µM
[16] = second compound 0.316 µM, first compound 1 µM
[17] = second compound 0.316 µM, first compound 3.16 µM
[18] = second compound 0.316 µM, first compound 10 µM
[19] = second compound 1 µM, first compound 0.0316 µM
[20] = second compound 1 µM, first compound 0.1 µM
[21] = second compound 1 µM, first compound 0.316 µM
[22] = second compound 1 µM, first compound 1 µM
[23] = second compound 1 µM, first compound 3.16 µM
[24] = second compound 1 µM, first compound 10 µM
[25] = second compound 3.16 µM, first compound 0.0316 µM
[26] = second compound 3.16 µM, first compound 0.1 µM
[27] = second compound 3.16 µM, first compound 0.316 µM
[28] = second compound 3.16 µM, first compound 1 µM
[29] = second compound 3.16 µM, first compound 3.16 µM
[30] = second compound 3.16 µM, first compound 10 µM
[31] = second compound 10 µM, first compound 0.0316 µM
[32] = second compound 10 µM, first compound 0.1 µM
[33] = second compound 10 µM, first compound 0.316 µM
[34] = second compound 10 µM, first compound 1 µM
[35] = second compound 10 µM, first compound 3.16 µM
[36] = second compound 10 µM, first compound 10 µM
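Note: spheroids exposed to compounds for seven days.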
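Throughout, for viability, T/C: 100% = DMSO vehicle control viability.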

CCc1cc2c(N3CCc4c(cc(Cn5ccnc5)cc4-c4cn(C)nc4C(F)(F)F)C3=O)ccnc2c(OC)n1 + COC1C(OC(N)=O)C(O)C(Oc2ccc3c(O)c(NC(=O)c4ccc(O)c(CC=C(C)C)c4)c(=O)oc3c2C)OC1(C)C
IC50 (second compound 0.0316 µM): 8.38 µM | IC50 (second compound 0.1 µM): > 10 µM | IC50 (second compound 0.316 µM): 9.83 µM | IC50 (second compound 1 µM): 6.45 µM | IC50 (second compound 3.16 µM): > 10 µM | IC50 (second compound 10 µM): > 10 µM | viability, T/C [1]: 107% | viability, T/C [2]: 93.5% | viability, T/C [3]: 99.2% | viability, T/C [4]: 96.2% | viability, T/C [5]: 67.6% | viability, T/C [6]: 46.8% | viability, T/C [7]: 117% | viability, T/C [8]: 108% | viability, T/C [9]: 107% | viability, T/C [10]: 99.7% | viability, T/C [11]: 66.3% | viability, T/C [12]: 62.6% | viability, T/C [13]: 103% | viability, T/C [14]: 108% | viability, T/C [15]: 98.1% | viability, T/C [16]: 93.7% | viability, T/C [17]: 68.7% | viability, T/C [18]: 49.9% | viability, T/C [19]: 103% | viability, T/C [20]: 97.2% | viability, T/C [21]: 104% | viability, T/C [22]: 104% | viability, T/C [23]: 58.5% | viability, T/C [24]: 44.7% | viability, T/C [25]: 105% | viability, T/C [26]: 111% | viability, T/C [27]: 102% | viability, T/C [28]: 83% | viability, T/C [29]: 82.8% | viability, T/C [30]: 55.3% | viability, T/C [31]: 108% | viability, T/C [32]: 95.6% | viability, T/C [33]: 108% | viability, T/C [34]: 85.5% | viability, T/C [35]: 67.8% | viability, T/C [36]: 59%

CC[C@@]1(O)C(=O)OCc2c1cc1n(c2=O)Cc2cc3c(CN(C)C)c(O)ccc3nc2-1 + Cc1cccc(N(C)C(=O)C2C(O)CCN2c2nc(C)cc(C(F)(F)F)c2C#N)c1
IC50 (second compound 0.0316 µM): > 0.1 µM | IC50 (second compound 0.1 µM): > 0.1 µM | IC50 (second compound 0.316 µM): > 0.1 µM | IC50 (second compound 1 µM): > 0.1 µM | IC50 (second compound 3.16 µM): > 0.1 µM | IC50 (second compound 10 µM): > 0.1 µM | viability, T/C (second compound 0.0316 µM, first compound 0.000316 µM): 110% | viability, T/C (second compound 0.0316 µM, first compound 0.001 µM): 95.1% | viability, T/C (second compound 0.0316 µM, first compound 0.00316 µM): 106% | viability, T/C (second compound 0.0316 µM, first compound 0.01 µM): 89.6% | viability, T/C [1]: 98.1% | viability, T/C [2]: 68.7% | viability, T/C (second compound 0.1 µM, first compound 0.000316 µM): 112% | viability, T/C (second compound 0.1 µM, first compound 0.001 µM): 99.6% | viability, T/C (second compound 0.1 µM, first compound 0.00316 µM): 96% | viability, T/C (second compound 0.1 µM, first compound 0.01 µM): 107% | viability, T/C [7]: 99.1% | viability, T/C [8]: 77.5% | viability, T/C (second compound 0.316 µM, first compound 0.000316 µM): 109% | viability, T/C (second compound 0.316 µM, first compound 0.001 µM): 91.2% | viability, T/C (second compound 0.316 µM, first compound 0.00316 µM): 92.4% | viability, T/C (second compound 0.316 µM, first compound 0.01 µM): 87% | viability, T/C [13]: 96.5% | viability, T/C [14]: 71.3% | viability, T/C (second compound 1 µM, first compound 0.000316 µM): 93.4% | viability, T/C (second compound 1 µM, first compound 0.001 µM): 99% | viability, T/C (second compound 1 µM, first compound 0.00316 µM): 101% | viability, T/C (second compound 1 µM, first compound 0.01 µM): 104% | viability, T/C [19]: 97.9% | viability, T/C [20]: 75.9% | viability, T/C (second compound 3.16 µM, first compound 0.000316 µM): 97.2% | viability, T/C (second compound 3.16 µM, first compound 0.001 µM): 100% | viability, T/C (second compound 3.16 µM, first compound 0.00316 µM): 94.6% | viability, T/C (second compound 3.16 µM, first compound 0.01 µM): 91.8% | viability, T/C [25]: 92.2% | viability, T/C [26]: 81% | viability, T/C (second compound 10 µM, first compound 0.000316 µM): 100% | viability, T/C (second compound 10 µM, first compound 0.001 µM): 99.6% | viability, T/C (second compound 10 µM, first compound 0.00316 µM): 92.4% | viability, T/C (second compound 10 µM, first compound 0.01 µM): 84.2% | viability, T/C [31]: 78% | viability, T/C [32]: 54.6%

C#Cc1c(F)ccc2cc(O)cc(-c3ncc4c(N5CC6CCC(C5)N6)nc(OCC56CCCN5CC(F)C6)nc4c3F)c12 (stereo unspecified) + Nc1ccc(C#CCN(C(=O)Cc2ncc(C(F)(F)F)cc2C(F)(F)F)c2ccc(F)cc2)nn1
IC50 (second compound 0.0316 µM): > 10 µM | IC50 (second compound 0.1 µM): > 10 µM | IC50 (second compound 0.316 µM): > 10 µM | IC50 (second compound 1 µM): > 10 µM | IC50 (second compound 3.16 µM): > 10 µM | IC50 (second compound 10 µM): > 10 µM | viability, T/C [1]: 94.3% | viability, T/C [2]: 100% | viability, T/C [3]: 98.2% | viability, T/C [4]: 89.7% | viability, T/C [5]: 83.2% | viability, T/C [6]: 89.4% | viability, T/C [7]: 99.9% | viability, T/C [8]: 105% | viability, T/C [9]: 95.5% | viability, T/C [10]: 95.1% | viability, T/C [11]: 89.9% | viability, T/C [12]: 103% | viability, T/C [13]: 103% | viability, T/C [14]: 83.5% | viability, T/C [15]: 100% | viability, T/C [16]: 96.8% | viability, T/C [17]: 87.8% | viability, T/C [18]: 86.6% | viability, T/C [19]: 88.6% | viability, T/C [20]: 86.7% | viability, T/C [21]: 98.8% | viability, T/C [22]: 92.3% | viability, T/C [23]: 91.3% | viability, T/C [24]: 80.8% | viability, T/C [25]: 106% | viability, T/C [26]: 102% | viability, T/C [27]: 102% | viability, T/C [28]: 95.9% | viability, T/C [29]: 100% | viability, T/C [30]: 86.5% | viability, T/C [31]: 102% | viability, T/C [32]: 93.5% | viability, T/C [33]: 87.1% | viability, T/C [34]: 105% | viability, T/C [35]: 106% | viability, T/C [36]: 89.5%
